# Source: ChEMBL document CHEMBL1629456, “ApoA-I mimetic peptides promote pre-β HDL formation in vivo causing remodeling of HDL and triglyceride accumulation at higher dose” (Bioorg Med Chem, 2010)
# *1 amine or outer side, *2 acyl side, *3 side chain or, on linkers, in order; H or OH if unused. Where a SMILES comes first, the peptide text is derived from it. [ ]: non-standard residue; d: D form. Gly(oct-7-en-1-yl) = C=CCCCCCC[C@H](N)C(=O)O; dGly(6-heptenyl) = C=CCCCCC[C@@H](N)C(=O)O; Ala(5-hexenyl) = C=CCCCCC[C@H](N)C(=O)O; dNle(6-vinyl) = C=CCCCC[C@@H](N)C(=O)O; X1 = CCCCCCC[C@H](N[*:1])C(=O)[*:2]; X2 = C=CCCCC[C@H](N[*:1])C(=O)[*:2]
# Molecular target: Phospholipid-transporting ATPase ABCA1 (Mus musculus, UniProt P41233)
# Test: Induction of ABCA1-mediated [3H]cholesterol efflux in mouse RAW 264.7 macrophages after 24 hrs
# Sequence of Phospholipid-transporting ATPase ABCA1 (P41233 whole entry): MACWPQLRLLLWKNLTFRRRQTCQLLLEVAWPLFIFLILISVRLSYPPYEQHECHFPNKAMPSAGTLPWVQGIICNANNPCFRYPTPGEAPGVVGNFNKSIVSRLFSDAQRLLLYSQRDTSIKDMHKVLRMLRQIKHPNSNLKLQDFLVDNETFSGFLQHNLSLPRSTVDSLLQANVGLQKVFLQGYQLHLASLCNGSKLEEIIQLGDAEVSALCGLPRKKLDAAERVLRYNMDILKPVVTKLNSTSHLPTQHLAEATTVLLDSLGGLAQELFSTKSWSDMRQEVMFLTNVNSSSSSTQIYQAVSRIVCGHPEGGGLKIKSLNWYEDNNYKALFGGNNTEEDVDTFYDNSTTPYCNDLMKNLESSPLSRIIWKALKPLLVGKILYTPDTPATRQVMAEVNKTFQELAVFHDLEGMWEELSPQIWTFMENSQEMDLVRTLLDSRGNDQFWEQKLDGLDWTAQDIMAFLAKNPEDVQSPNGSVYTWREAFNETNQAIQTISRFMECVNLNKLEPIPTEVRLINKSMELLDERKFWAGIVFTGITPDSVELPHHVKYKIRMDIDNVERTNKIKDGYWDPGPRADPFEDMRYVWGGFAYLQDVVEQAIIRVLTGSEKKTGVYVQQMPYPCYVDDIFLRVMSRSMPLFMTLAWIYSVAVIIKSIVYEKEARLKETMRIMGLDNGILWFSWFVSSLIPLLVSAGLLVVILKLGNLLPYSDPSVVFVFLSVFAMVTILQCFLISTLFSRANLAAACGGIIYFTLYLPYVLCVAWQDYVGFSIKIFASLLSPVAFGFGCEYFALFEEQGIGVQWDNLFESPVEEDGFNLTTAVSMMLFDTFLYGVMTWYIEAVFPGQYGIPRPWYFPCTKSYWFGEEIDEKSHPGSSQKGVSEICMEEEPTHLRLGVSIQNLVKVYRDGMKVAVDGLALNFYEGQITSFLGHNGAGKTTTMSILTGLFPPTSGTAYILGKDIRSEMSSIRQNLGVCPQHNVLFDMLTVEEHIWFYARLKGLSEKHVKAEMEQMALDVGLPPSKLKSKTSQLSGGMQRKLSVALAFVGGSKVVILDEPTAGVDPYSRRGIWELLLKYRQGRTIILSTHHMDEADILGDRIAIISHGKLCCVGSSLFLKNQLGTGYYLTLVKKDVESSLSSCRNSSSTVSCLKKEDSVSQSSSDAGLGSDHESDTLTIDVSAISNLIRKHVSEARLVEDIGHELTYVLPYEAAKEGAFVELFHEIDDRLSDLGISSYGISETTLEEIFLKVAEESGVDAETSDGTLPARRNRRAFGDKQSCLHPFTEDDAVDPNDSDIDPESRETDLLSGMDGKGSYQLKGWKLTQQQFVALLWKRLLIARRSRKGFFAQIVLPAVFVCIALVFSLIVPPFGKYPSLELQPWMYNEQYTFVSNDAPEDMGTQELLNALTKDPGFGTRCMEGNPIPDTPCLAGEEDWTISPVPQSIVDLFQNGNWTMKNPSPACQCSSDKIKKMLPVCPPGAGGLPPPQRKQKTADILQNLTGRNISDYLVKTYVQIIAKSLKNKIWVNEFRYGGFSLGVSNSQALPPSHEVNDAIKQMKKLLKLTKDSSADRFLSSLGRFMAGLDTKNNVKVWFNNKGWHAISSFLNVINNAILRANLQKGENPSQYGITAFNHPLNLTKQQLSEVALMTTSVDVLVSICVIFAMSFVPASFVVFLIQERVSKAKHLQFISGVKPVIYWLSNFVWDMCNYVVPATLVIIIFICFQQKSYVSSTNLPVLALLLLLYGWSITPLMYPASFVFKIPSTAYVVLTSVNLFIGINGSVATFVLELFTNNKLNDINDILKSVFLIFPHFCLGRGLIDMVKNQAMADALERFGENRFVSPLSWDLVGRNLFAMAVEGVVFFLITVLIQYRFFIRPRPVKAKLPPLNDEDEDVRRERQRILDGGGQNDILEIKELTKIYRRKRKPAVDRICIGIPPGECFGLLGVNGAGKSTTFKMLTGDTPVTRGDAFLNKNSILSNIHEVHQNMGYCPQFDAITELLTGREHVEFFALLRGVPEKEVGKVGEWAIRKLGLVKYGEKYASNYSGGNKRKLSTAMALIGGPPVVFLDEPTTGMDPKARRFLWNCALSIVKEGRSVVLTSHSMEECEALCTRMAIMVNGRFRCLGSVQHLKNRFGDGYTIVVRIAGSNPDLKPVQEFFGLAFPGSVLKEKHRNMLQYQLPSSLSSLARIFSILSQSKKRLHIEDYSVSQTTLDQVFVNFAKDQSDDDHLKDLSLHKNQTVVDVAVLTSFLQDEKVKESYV
row,SMILES,EC50
1,C=CCCCCC[C@@H](NC(=O)[C@H](CCC(=O)O)NC(=O)[C@H](CCCNC(=N)N)NC(=O)[C@H](Cc1ccccc1)NC(=O)[C@H](CCC(=O)O)NC(=O)[C@H](CC(=O)O)NC(=O)[C@H](CC(C)C)NC(=O)[C@@H](NC(=O)[C@@H]1CCCN1C(C)=O)C(C)C)C(=O)N[C@@H](CC(C)C)C(=O)N[C@@H](CC(N)=O)C(=O)N[C@@H](CCC(=O)O)C(=O)N[C@@H](CCC(=O)O)C(=O)N[C@@H](CC(C)C)C(=O)N[C@@H](CCC(=O)O)C(=O)N[C@@H](C)C(=O)N[C@@H](CC(C)C)C(=O)N[C@@H](CCCCN)C(=O)N[C@@H](CCC(N)=O)C(=O)N[C@@H](CCCCN)C(=O)N[C@@H](CC(C)C)C(=O)N[C@@H](CCCCN)C(N)=O,> 100 µM
2,C=CCCCCC[C@@H](NC(=O)[C@H](CCCCN)NC(=O)[C@H](CCC(=O)O)NC(=O)[C@H](CCCN=C(N)N)NC(=O)[C@H](Cc1ccccc1)NC(=O)[C@H](CCC(=O)O)NC(=O)[C@H](CC(=O)O)NC(=O)[C@H](CC(C)C)NC(=O)[C@@H](NC(=O)[C@@H]1CCCN1C(C)=O)C(C)C)C(=O)N[C@@H](CC(N)=O)C(=O)N[C@@H](CCC(=O)O)C(=O)N[C@@H](CCC(=O)O)C(=O)N[C@@H](CC(C)C)C(=O)N[C@@H](CCC(=O)O)C(=O)N[C@@H](C)C(=O)N[C@@H](CC(C)C)C(=O)N[C@@H](CCCCN)C(=O)N[C@@H](CCC(N)=O)C(=O)N[C@@H](CCCCN)C(=O)N[C@@H](CC(C)C)C(=O)N[C@@H](CCCCN)C(N)=O,> 100 µM
3,C=CCCCCC[C@@H](NC(=O)[C@H](CCC(=O)O)NC(=O)[C@H](CCC(=O)O)NC(=O)[C@H](CC(N)=O)NC(=O)[C@H](CC(C)C)NC(=O)[C@H](CCCCN)NC(=O)[C@H](CCC(=O)O)NC(=O)[C@H](CCCN=C(N)N)NC(=O)[C@H](Cc1ccccc1)NC(=O)[C@H](CCC(=O)O)NC(=O)[C@H](CC(=O)O)NC(=O)[C@H](CC(C)C)NC(=O)[C@@H](NC(=O)[C@@H]1CCCN1C(C)=O)C(C)C)C(=O)N[C@@H](CCC(=O)O)C(=O)N[C@@H](C)C(=O)N[C@@H](CC(C)C)C(=O)N[C@@H](CCCCN)C(=O)N[C@@H](CCC(N)=O)C(=O)N[C@@H](CCCCN)C(=O)N[C@@H](CC(C)C)C(=O)N[C@@H](CCCCN)C(N)=O,> 100 µM
4,C=CCCCCC[C@@H](NC(=O)[C@H](C)NC(=O)[C@H](CCC(=O)O)NC(=O)[C@H](CC(C)C)NC(=O)[C@H](CCC(=O)O)NC(=O)[C@H](CCC(=O)O)NC(=O)[C@H](CC(N)=O)NC(=O)[C@H](CC(C)C)NC(=O)[C@H](CCCCN)NC(=O)[C@H](CCC(=O)O)NC(=O)[C@H](CCCN=C(N)N)NC(=O)[C@H](Cc1ccccc1)NC(=O)[C@H](CCC(=O)O)NC(=O)[C@H](CC(=O)O)NC(=O)[C@H](CC(C)C)NC(=O)[C@@H](NC(=O)[C@@H]1CCCN1C(C)=O)C(C)C)C(=O)N[C@@H](CCCCN)C(=O)N[C@@H](CCC(N)=O)C(=O)N[C@@H](CCCCN)C(=O)N[C@@H](CC(C)C)C(=O)N[C@@H](CCCCN)C(N)=O,> 100 µM
5,C=CCCCCC[C@@H](NC(=O)[C@H](CCC(N)=O)NC(=O)[C@H](CCCCN)NC(=O)[C@H](CC(C)C)NC(=O)[C@H](C)NC(=O)[C@H](CCC(=O)O)NC(=O)[C@H](CC(C)C)NC(=O)[C@H](CCC(=O)O)NC(=O)[C@H](CCC(=O)O)NC(=O)[C@H](CC(N)=O)NC(=O)[C@H](CC(C)C)NC(=O)[C@H](CCCCN)NC(=O)[C@H](CCC(=O)O)NC(=O)[C@H](CCCN=C(N)N)NC(=O)[C@H](Cc1ccccc1)NC(=O)[C@H](CCC(=O)O)NC(=O)[C@H](CC(=O)O)NC(=O)[C@H](CC(C)C)NC(=O)[C@@H](NC(=O)[C@@H]1CCCN1C(C)=O)C(C)C)C(=O)N[C@@H](CC(C)C)C(=O)N[C@@H](CCCCN)C(N)=O,> 100 µM
6,C=CCCCCC[C@@H](NC(=O)[C@H](CCCCN)NC(=O)[C@H](CCC(N)=O)NC(=O)[C@H](CCCCN)NC(=O)[C@H](CC(C)C)NC(=O)[C@H](C)NC(=O)[C@H](CCC(=O)O)NC(=O)[C@H](CC(C)C)NC(=O)[C@H](CCC(=O)O)NC(=O)[C@H](CCC(=O)O)NC(=O)[C@H](CC(N)=O)NC(=O)[C@H](CC(C)C)NC(=O)[C@H](CCCCN)NC(=O)[C@H](CCC(=O)O)NC(=O)[C@H](CCCNC(=N)N)NC(=O)[C@H](Cc1ccccc1)NC(=O)[C@H](CCC(=O)O)NC(=O)[C@H](CC(=O)O)NC(=O)[C@H](CC(C)C)NC(=O)[C@@H](NC(=O)[C@@H]1CCCN1C(C)=O)C(C)C)C(=O)N[C@@H](CCCCN)C(N)=O,> 100 µM
7,C=CCCCCC[C@H](NC(=O)[C@H](CCC(=O)O)NC(=O)[C@H](CC(N)=O)NC(=O)[C@H](CC(C)C)NC(=O)[C@H](CCCCN)NC(=O)[C@H](CCC(=O)O)NC(=O)[C@H](CCCNC(=N)N)NC(=O)[C@H](Cc1ccccc1)NC(=O)[C@H](CCC(=O)O)NC(=O)[C@H](CC(=O)O)NC(=O)[C@H](CC(C)C)NC(=O)[C@@H](NC(=O)[C@@H]1CCCN1C(C)=O)C(C)C)C(=O)N[C@@H](CC(C)C)C(=O)N[C@@H](CCC(=O)O)C(=O)N[C@@H](C)C(=O)N[C@@H](CC(C)C)C(=O)N[C@@H](CCCCN)C(=O)N[C@@H](CCC(N)=O)C(=O)N[C@@H](CCCCN)C(=O)N[C@@H](CC(C)C)C(=O)N[C@@H](CCCCN)C(N)=O (Ac-PVLDEFREKLNE[Ala(5-hexenyl)]LEALKQKLK-NH2),2.4 µM
8,C=CCCCCC[C@H](NC(=O)[C@H](CCC(N)=O)NC(=O)[C@H](CCCCN)NC(=O)[C@H](CC(C)C)NC(=O)[C@H](C)NC(=O)[C@H](CCC(=O)O)NC(=O)[C@H](CC(C)C)NC(=O)[C@H](CCCCCC=C)NC(=O)[C@H](CCC(=O)O)NC(=O)[C@H](CC(N)=O)NC(=O)[C@H](CC(C)C)NC(=O)[C@H](CCCCN)NC(=O)[C@H](CCC(=O)O)NC(=O)[C@H](CCCN=C(N)N)NC(=O)[C@H](Cc1ccccc1)NC(=O)[C@H](CCC(=O)O)NC(=O)[C@H](CC(=O)O)NC(=O)[C@H](CC(C)C)NC(=O)[C@@H](NC(=O)[C@@H]1CCCN1C(C)=O)C(C)C)C(=O)N[C@@H](CC(C)C)C(=O)N[C@@H](CCCCN)C(N)=O (Ac-PVLDEFREKLNE[Ala(5-hexenyl)]LEALKQ[Ala(5-hexenyl)]LK-NH2),0.9 µM
9,C=CCCCCCC[C@H](NC(=O)[C@H](CCC(=O)O)NC(=O)[C@H](CC(N)=O)NC(=O)[C@H](CC(C)C)NC(=O)[C@H](CCCCN)NC(=O)[C@H](CCC(=O)O)NC(=O)[C@H](CCCN=C(N)N)NC(=O)[C@H](Cc1ccccc1)NC(=O)[C@H](CCC(=O)O)NC(=O)[C@H](CC(=O)O)NC(=O)[C@H](CC(C)C)NC(=O)[C@@H](NC(=O)[C@@H]1CCCN1C(C)=O)C(C)C)C(=O)N[C@@H](CC(C)C)C(=O)N[C@@H](CCC(=O)O)C(=O)N[C@@H](C)C(=O)N[C@@H](CC(C)C)C(=O)N[C@@H](CCCCN)C(=O)N[C@@H](CCC(N)=O)C(=O)N[C@@H](CCCCN)C(=O)N[C@@H](CC(C)C)C(=O)N[C@@H](CCCCN)C(N)=O (Ac-PVLDEFREKLNE[Gly(oct-7-en-1-yl)]LEALKQKLK-NH2),0.7 µM
10,CCCCCCC[C@H](NC(=O)[C@H](CCC(=O)O)NC(=O)[C@H](CC(N)=O)NC(=O)[C@H](CC(C)C)NC(=O)[C@H](CCCCN)NC(=O)[C@H](CCC(=O)O)NC(=O)[C@H](CCCN=C(N)N)NC(=O)[C@H](Cc1ccccc1)NC(=O)[C@H](CCC(=O)O)NC(=O)[C@H](CC(=O)O)NC(=O)[C@H](CC(C)C)NC(=O)[C@@H](NC(=O)[C@@H]1CCCN1C(C)=O)C(C)C)C(=O)N[C@@H](CC(C)C)C(=O)N[C@@H](CCC(=O)O)C(=O)N[C@@H](C)C(=O)N[C@@H](CC(C)C)C(=O)N[C@@H](CCCCN)C(=O)N[C@@H](CCC(N)=O)C(=O)N[C@@H](CCCCN)C(=O)N[C@@H](CC(C)C)C(=O)N[C@@H](CCCCN)C(N)=O (Ac-PVLDEFREKLNE[X1]LEALKQKLK-NH2),0.7 µM
11,C=CCCCC[C@H](NC(=O)[C@H](CCC(=O)O)NC(=O)[C@H](CC(N)=O)NC(=O)[C@H](CC(C)C)NC(=O)[C@H](CCCCN)NC(=O)[C@H](CCC(=O)O)NC(=O)[C@H](CCCNC(=N)N)NC(=O)[C@H](Cc1ccccc1)NC(=O)[C@H](CCC(=O)O)NC(=O)[C@H](CC(=O)O)NC(=O)[C@H](CC(C)C)NC(=O)[C@@H](NC(=O)[C@@H]1CCCN1C(C)=O)C(C)C)C(=O)N[C@@H](CC(C)C)C(=O)N[C@@H](CCC(=O)O)C(=O)N[C@@H](C)C(=O)N[C@@H](CC(C)C)C(=O)N[C@@H](CCCCN)C(=O)N[C@@H](CCC(N)=O)C(=O)N[C@@H](CCCCN)C(=O)N[C@@H](CC(C)C)C(=O)N[C@@H](CCCCN)C(N)=O (Ac-PVLDEFREKLNE[X2]LEALKQKLK-NH2),1.4 µM
12,C=CCCCCC[C@@H](NC(=O)[C@H](CCC(=O)O)NC(=O)[C@H](CC(N)=O)NC(=O)[C@H](CC(C)C)NC(=O)[C@H](CCCCN)NC(=O)[C@H](CCC(=O)O)NC(=O)[C@H](CCCN=C(N)N)NC(=O)[C@H](Cc1ccccc1)NC(=O)[C@H](CCC(=O)O)NC(=O)[C@H](CC(=O)O)NC(=O)[C@H](CC(C)C)NC(=O)[C@@H](NC(=O)[C@@H]1CCCN1C(C)=O)C(C)C)C(=O)N[C@@H](CC(C)C)C(=O)N[C@@H](CCC(=O)O)C(=O)N[C@@H](C)C(=O)N[C@@H](CC(C)C)C(=O)N[C@@H](CCCCN)C(=O)N[C@@H](CCC(N)=O)C(=O)N[C@@H](CCCCN)C(=O)N[C@@H](CC(C)C)C(=O)N[C@@H](CCCCN)C(N)=O (Ac-PVLDEFREKLNE[dGly(6-heptenyl)]LEALKQKLK-NH2),9.5 µM
13,C=CCCCC[C@@H](NC(=O)[C@H](CCC(=O)O)NC(=O)[C@H](CC(N)=O)NC(=O)[C@H](CC(C)C)NC(=O)[C@H](CCCCN)NC(=O)[C@H](CCC(=O)O)NC(=O)[C@H](CCCN=C(N)N)NC(=O)[C@H](Cc1ccccc1)NC(=O)[C@H](CCC(=O)O)NC(=O)[C@H](CC(=O)O)NC(=O)[C@H](CC(C)C)NC(=O)[C@@H](NC(=O)[C@@H]1CCCN1C(C)=O)C(C)C)C(=O)N[C@@H](CC(C)C)C(=O)N[C@@H](CCC(=O)O)C(=O)N[C@@H](C)C(=O)N[C@@H](CC(C)C)C(=O)N[C@@H](CCCCN)C(=O)N[C@@H](CCC(N)=O)C(=O)N[C@@H](CCCCN)C(=O)N[C@@H](CC(C)C)C(=O)N[C@@H](CCCCN)C(N)=O (Ac-PVLDEFREKLNE[dNle(6-vinyl)]LEALKQKLK-NH2),31 µM
